# Laboratory results taken from US12637478B2, “Compound, preparation method thereof, and antibiotic composition comprising same” (priority 2020, dated 2026).
# Like-named read-outs stand apart in the source and are kept apart here.
# What was measured:
# [1] = tested on: S. aureus^MS; assay: MIC by broth microdilution (aerobic pathogens), test strain 1; format: cell-based; conditions: Staphylococcus aureus
# Description: (§1) The antibacterial activity of the compounds of Examples 1 to 48 of the present invention against aerobic pathogens were evaluated by measuring the minimum concentration of the antibiotic capable of inhibiting bacterial growth by 90% compared to the growth of the non-drug treated control group. MIC was measured by the broth microdilution method based on CLSI standards [Reference: Clinical and Laboratory Standards Institute Document. (2000) Methods for Dilution Antimicrobial Susceptibility Test for Bacteria that Grow Aerobically-Fifth Edition: M7-A5. CLSI, Villanova, PA].
# (§2) All 13 strains such as methicillin susceptible Staphylococcus aureus (MSSA), methicillin resistant Staphylococcus aureus (MRSA), Vancomycin resistant Staphylococcus aureus (VRSA), Staphylococcus epidermidis, methicillin resistant Staphylococcus epidermidis, Enterococcus faecalis, Vancomycin resistant Enterococcus faecalis, Enterococcus faecium, Vancomycin resistant Enterococcus faecium were used.
# [2] = tested on: S. aureus^MS; assay: MIC by broth microdilution (aerobic pathogens), test strain 2; format: cell-based; conditions: Staphylococcus aureus
# Description: as §1, §2
# [3] = tested on: E. faecalis^LinR; assay: MIC by broth microdilution (aerobic pathogens), test strain 9; format: cell-based, Linezolid resistant Enterococcus faecalis; conditions: Enterococcus faecalis
# Description: as §1, §2
# [4] = tested on: C. difficile 9689; assay: MIC by agar dilution against Clostridioides difficile, test strain 13; format: cell-based; conditions: test strain 13, C. difficile 9689, anaerobic, agar dilution, read-out: MIC
# [5] = tested on: C. difficile 152; assay: MIC by agar dilution against Clostridioides difficile, test strain 14; format: cell-based; conditions: test strain 14, C. difficile 152, anaerobic, agar dilution, read-out: MIC
# [6] = tested on: C. difficile 173; assay: MIC by agar dilution against Clostridioides difficile, test strain 17; format: cell-based; conditions: test strain 17, C. difficile 173, anaerobic, agar dilution, read-out: MIC
# [7] = tested on: C. difficile 174; assay: MIC by agar dilution against Clostridioides difficile, test strain 18; format: cell-based; conditions: test strain 18, C. difficile 174, anaerobic, agar dilution, read-out: MIC
# [8] = tested on: C. difficile 181; assay: MIC by agar dilution against Clostridioides difficile, test strain 19; format: cell-based; conditions: test strain 19, C. difficile 181, anaerobic, agar dilution, read-out: MIC
# [9] = tested on: S. epidermis; assay: MIC by broth microdilution (aerobic pathogens), test strain 5; format: cell-based; conditions: Staphylococcus epidermidis
# Description: as §1, §2
# [10] = tested on: S. epidermis^MR; assay: MIC by broth microdilution (aerobic pathogens), test strain 6; format: cell-based, Methicillin resistant Staphylococcus epidermidis; conditions: Staphylococcus epidermidis; test strain 6, S. epidermis^MR (methicillin resistant); read-out: MIC
# Description: as §1, §2
# [11] = tested on: E. faecalis; assay: MIC by broth microdilution (aerobic pathogens), test strain 7; format: cell-based; conditions: Enterococcus faecalis; test strain 7, E. faecalis; read-out: MIC
# Description: as §1, §2
# [12] = tested on: E. faecalis^VanA; assay: MIC by broth microdilution (aerobic pathogens), test strain 8; format: cell-based, Vancomycin resistant Enterococcus faecalis; conditions: Enterococcus faecalis; test strain 8, E. faecalis^VanA (vancomycin resistant); read-out: MIC
# Description: as §1, §2
# [13] = tested on: E. faecium; assay: MIC by broth microdilution (aerobic pathogens), test strain 10; format: cell-based; conditions: Enterococcus faecium; test strain 10, E. faecium; read-out: MIC
# Description: as §1, §2
# [14] = tested on: C. difficile 159; assay: MIC by agar dilution against Clostridioides difficile, test strain 15; format: cell-based
# [15] = tested on: C. difficile 161; assay: MIC by agar dilution against Clostridioides difficile, test strain 16; format: cell-based; conditions: test strain 16, C. difficile 161, anaerobic, agar dilution, read-out: MIC
# [16] = tested on: S. aureus^VR; assay: MIC by broth microdilution (aerobic pathogens), test strain 4; format: cell-based, Vancomycin resistant Staphylococcus aureus; conditions: Staphylococcus aureus; test strain 4, S. aureus^VR (vancomycin resistant); read-out: MIC
# Description: as §1, §2
# [17] = tested on: E. faecium^VRE; assay: MIC by broth microdilution (aerobic pathogens), test strain 11; format: cell-based, Vancomycin resistant Enterococcus faecium; conditions: Enterococcus faecium; test strain 11, E. faecium^VRE (vancomycin resistant); read-out: MIC
# Description: as §1, §2
# [18] = tested on: E. faecium^LinR; assay: MIC by broth microdilution (aerobic pathogens), test strain 12; format: cell-based, Linezolid resistant Enterococcus faecium; conditions: Enterococcus faecium; test strain 12, E. faecium^LinR (linezolid resistant); read-out: MIC
# Description: as §1, §2
# [19] = test strain 1, S. aureus^MS, read-out: MIC
# [20] = test strain 2, S. aureus^MS, read-out: MIC
# [21] = test strain 9, E. faecalis^LinR (linezolid resistant), read-out: MIC
# [22] = test strain 5, S. epidermis, read-out: MIC
# [23] = test strain 15, C. difficile 159, anaerobic, agar dilution, read-out: MIC
Compound,"MIC [1, 19]","MIC [2, 20]","MIC [3, 21]",MIC [4],MIC [5],MIC [6],MIC [7],MIC [8],MIC [10],MIC [11],"MIC [9, 22]","MIC [14, 23]",MIC [15],also measured
C/C=C1\NC(=O)[C@H]([C@@H](C)O)NC(=O)c2csc(n2)-c2ccc(-c3nc(-c4nc(C(=O)NC5(C(=O)NCCCCCB(O)O)CC5)cs4)cs3)nc2-c2csc(n2)[C@H]([C@@H](C)O)NC(=O)c2csc(n2)[C@H](C(C)C)NC(=O)c2csc1n2 [Compound 21],0.25 µg/mL,0.125 µg/mL,0.5 µg/mL,0.25 µg/mL,0.25 µg/mL,0.5 µg/mL,0.25 µg/mL,1 µg/mL,,,,,,
C/C=C1\NC(=O)[C@H]([C@@H](C)O)NC(=O)c2csc(n2)-c2ccc(-c3nc(-c4nc(C(=O)NC5(C(=O)NCCN6CCOCC6)CC5)cs4)cs3)nc2-c2csc(n2)[C@H]([C@@H](C)O)NC(=O)c2csc(n2)[C@H](C(C)C)NC(=O)c2csc1n2 [Compound 2],1 µg/mL,1 µg/mL,1 µg/mL,,,,,,0.5 µg/mL,0.5 µg/mL,,,,MIC [9]: 0.25 µg/mL; MIC [12]: 0.5 µg/mL
C/C=C1\NC(=O)[C@H]([C@@H](C)O)NC(=O)c2csc(n2)-c2ccc(-c3nc(-c4nc(C(=O)NC5(C(=O)NCCn6c([N+](=O)[O-])cnc6C)CC5)cs4)cs3)nc2-c2csc(n2)[C@H]([C@@H](C)O)NC(=O)c2csc(n2)[C@H](C(C)C)NC(=O)c2csc1n2 [Compound 11],0.5 µg/mL,0.5 µg/mL,0.5 µg/mL,1 µg/mL,0.25 µg/mL,0.125 µg/mL,0.125 µg/mL,0.125 µg/mL,0.5 µg/mL,0.25 µg/mL,0.125 µg/mL,0.5 µg/mL,0.5 µg/mL,MIC [12]: 1 µg/mL; MIC [13]: 1 µg/mL
C/C=C1\NC(=O)[C@H]([C@@H](C)O)NC(=O)c2csc(n2)-c2ccc(-c3nc(-c4nc(C(=O)NC5(C(=O)NCC6OB(O)c7ccccc76)CC5)cs4)cs3)nc2-c2csc(n2)[C@H]([C@@H](C)O)NC(=O)c2csc(n2)[C@H](C(C)C)NC(=O)c2csc1n2 (stereo partly shown) [Compound 6],0.5 µg/mL,0.25 µg/mL,0.125 µg/mL,1 µg/mL,0.06 µg/mL,0.06 µg/mL,0.06 µg/mL,0.06 µg/mL,1 µg/mL,0.125 µg/mL,0.5 µg/mL,,,MIC [16]: 1 µg/mL; MIC [12]: 1 µg/mL; MIC [13]: 0.25 µg/mL; MIC [17]: 1 µg/mL; MIC [18]: 0.5 µg/mL
C/C=C1\NC(=O)[C@H]([C@@H](C)O)NC(=O)c2csc(n2)-c2ccc(-c3nc(-c4nc(C(=O)NC5(C(=O)NCc6ncc([N+](=O)[O-])n6C)CC5)cs4)cs3)nc2-c2csc(n2)[C@H]([C@@H](C)O)NC(=O)c2csc(n2)[C@H](C(C)C)NC(=O)c2csc1n2 [Compound 44],,,,0.5 µg/mL,0.25 µg/mL,0.5 µg/mL,0.5 µg/mL,0.5 µg/mL,,,,,0.25 µg/mL,
C/C=C1\NC(=O)[C@H]([C@@H](C)O)NC(=O)c2csc(n2)-c2ccc(-c3nc(-c4nc(C(=O)NC5(C(=O)NCCN6C(=O)CSC6=O)CC5)cs4)cs3)nc2-c2csc(n2)[C@H]([C@@H](C)O)NC(=O)c2csc(n2)[C@H](C(C)C)NC(=O)c2csc1n2 [Compound 36],0.25 µg/mL,0.5 µg/mL,,,,,,,0.5 µg/mL,0.5 µg/mL,0.5 µg/mL,,,MIC [18]: 1 µg/mL
C/C=C1\NC(=O)[C@H]([C@@H](C)O)NC(=O)c2csc(n2)-c2ccc(-c3nc(-c4nc(C(=O)NC5(C(=O)NCCCCB(O)O)CC5)cs4)cs3)nc2-c2csc(n2)[C@H]([C@@H](C)O)NC(=O)c2csc(n2)[C@H](C(C)C)NC(=O)c2csc1n2 [Compound 20],0.25 µg/mL,0.125 µg/mL,0.25 µg/mL,0.25 µg/mL,0.25 µg/mL,0.5 µg/mL,0.25 µg/mL,1 µg/mL,0.5 µg/mL,0.5 µg/mL,0.5 µg/mL,0.5 µg/mL,1 µg/mL,MIC [13]: 0.5 µg/mL; MIC [17]: 1 µg/mL; MIC [18]: 1 µg/mL
C/C=C1\NC(=O)[C@H]([C@@H](C)O)NC(=O)c2csc(n2)-c2ccc(-c3nc(-c4nc(C(=O)NC5(C(=O)NCCn6cnc([N+](=O)[O-])n6)CC5)cs4)cs3)nc2-c2csc(n2)[C@H]([C@@H](C)O)NC(=O)c2csc(n2)[C@H](C(C)C)NC(=O)c2csc1n2 [Compound 38],1 µg/mL,1 µg/mL,,,,,,,1 µg/mL,,1 µg/mL,,,MIC [16]: 1 µg/mL; MIC [12]: 1 µg/mL; MIC [13]: 0.5 µg/mL; MIC [17]: 1 µg/mL; MIC [18]: 1 µg/mL
C/C=C1\NC(=O)[C@H]([C@@H](C)O)NC(=O)c2csc(n2)-c2ccc(-c3nc(-c4nc(C(=O)NC5(C(=O)NCCCn6cc([N+](=O)[O-])cn6)CC5)cs4)cs3)nc2-c2csc(n2)[C@H]([C@@H](C)O)NC(=O)c2csc(n2)[C@H](C(C)C)NC(=O)c2csc1n2 [Compound 13],,,,0.5 µg/mL,1 µg/mL,0.5 µg/mL,0.125 µg/mL,0.5 µg/mL,,,,,0.5 µg/mL,
C/C=C(\NC(=O)c1csc(-c2csc(-c3ccc4c(n3)-c3csc(n3)[C@H]([C@@H](C)O)NC(=O)c3csc(n3)[C@H](C(C)C)NC(=O)c3csc(n3)/C(=C/C)NC(=O)[C@H]([C@@H](C)O)NC(=O)c3csc-4n3)n2)n1)C(=O)NCCn1ccnc1[N+](=O)[O-] [Compound 43],,,,0.5 µg/mL,0.5 µg/mL,1 µg/mL,0.5 µg/mL,0.5 µg/mL,,,,0.5 µg/mL,0.5 µg/mL,
C/C=C1\NC(=O)[C@H]([C@@H](C)O)NC(=O)c2csc(n2)-c2ccc(-c3nc(-c4nc(C(=O)NC5(C(=O)NCCn6ccnc6[N+](=O)[O-])CC5)cs4)cs3)nc2-c2csc(n2)[C@H]([C@@H](C)O)NC(=O)c2csc(n2)[C@H](C(C)C)NC(=O)c2csc1n2 [Compound 39],,,,0.25 µg/mL,0.25 µg/mL,0.5 µg/mL,1 µg/mL,0.5 µg/mL,,,,1 µg/mL,0.25 µg/mL,
C/C=C(\NC(=O)c1csc(-c2csc(-c3ccc4c(n3)-c3csc(n3)[C@H]([C@@H](C)O)NC(=O)c3csc(n3)[C@H](C(C)C)NC(=O)c3csc(n3)/C(=C/C)NC(=O)[C@H]([C@@H](C)O)NC(=O)c3csc-4n3)n2)n1)C(=O)NCCn1cc([N+](=O)[O-])nc1C [Compound 41],,,,0.5 µg/mL,0.25 µg/mL,0.5 µg/mL,0.25 µg/mL,1 µg/mL,,,,0.5 µg/mL,0.25 µg/mL,
C/C=C1\NC(=O)[C@H]([C@@H](C)O)NC(=O)c2csc(n2)-c2ccc(-c3nc(-c4nc(C(=O)NC5(C(=O)NCCn6cc([N+](=O)[O-])nc6C)CC5)cs4)cs3)nc2-c2csc(n2)[C@H]([C@@H](C)O)NC(=O)c2csc(n2)[C@H](C(C)C)NC(=O)c2csc1n2 [Compound 45],,,,0.5 µg/mL,0.5 µg/mL,1 µg/mL,0.5 µg/mL,1 µg/mL,,,,0.5 µg/mL,0.5 µg/mL,
C/C=C1\NC(=O)[C@H]([C@@H](C)O)NC(=O)c2csc(n2)-c2ccc(-c3nc(-c4nc(C(=O)NC5(C(=O)NCCCN6C(=O)CN(CCC(=O)OC)C6=O)CC5)cs4)cs3)nc2-c2csc(n2)[C@H]([C@@H](C)O)NC(=O)c2csc(n2)[C@H](C(C)C)NC(=O)c2csc1n2 [Compound 16],,,,,,,,,,,,,,MIC [1]: 1 µg/mL; MIC [2]: 0.5 µg/mL; MIC [3]: 0.25 µg/mL; MIC [14]; 159: 0.5 µg/mL
